According to patent US6362174B1, “Reduced dipeptide analogues as calcium channel antagonitsts” (Warner-Lambert Company, priority 1998, dated 2002):
Structures can show the parent of a compound that is named as a salt.

Columns and labels:
DBA/2 mice = test: Audiogenic seizure model in DBA/2 mice; assay type: in vivo; conditions: for protection: 30 mg/kg, 15 minutes posttreatment time
Experimental: Audiogenic Seizure Model in DBA/2 Mice
Compounds of the present invention were dissolved in water using 10% (weight/volume) Emulphor (GAF Corp., Wayne, N.J.) surfactant. Substances were administered by intravenous injection into the retro-orbital venous sinus. All testing was performed 15 minutes or 45 minutes after drug injection. All the male mice, 3 to 4 weeks old, were obtained from Jackson Laboratories, Bar Harbour, Me. Immediately before anticonvulsant testing, mice were placed upon a wire mesh, 4 inches square suspended from a steel rod. […] Any mouse falling from the wire mesh was scored as ataxic.
Mice were placed into an enclosed acrylic plastic chamber (21 cm height, approximately 30 cm diameter) with a high-frequency speaker (4 cm diameter) in the center of the top lid. An audio signal generator (Protek model B-810) was used to produce a continuous sinusoidal tone that was swept linearly in frequency between 8 kHz and 16 kHz once each 10 msec. The average sound pressure level (SPL) during stimulation was approximately 100 dB at the floor of the chamber. Mice were placed within the chamber and allowed to acclimatize for 1 minute. DBA/2 mice in the vehicle-treated group responded to the sound stimulus (applied until tonic extension occurred, or for a maximum of 60 seconds) with a characteristic seizure sequence consisting of wild running followed by clonic seizures, and later by tonic extension, and finally by respiratory arrest and death in 80% or more of the mice. In vehicle-treated mice, the entire sequence of seizures to respiratory arrest lasts approximately 15 to 20 seconds.
The incidence of all the seizure phases in the drug-treated and vehicle-treated mice was recorded, and the occurrence of tonic seizures were used for calculating anticonvulsant ED values by probit analysis. Mice were used only once for testing at each time and dose point.

N-type Ca2+ channel = target: T1, N-type Ca2+ channel (Homo sapiens, UniProt Q00975); test: Measurement of N-type Ca2+ channel blocking potencies in IMR32 cells using the fluorescent Ca2+ indicator Indo-1; assay type: cell-based; conditions: IMR-32 cells; for IC50: K+ depolarization, 5 μM nitrendipine to block L-type channels
T1 construct: host or cells: IMR-32 human neuroblastoma cells, differentiated with dibutyryl cAMP and bromodeoxyuridine
T1 sequence (Q00975 whole entry): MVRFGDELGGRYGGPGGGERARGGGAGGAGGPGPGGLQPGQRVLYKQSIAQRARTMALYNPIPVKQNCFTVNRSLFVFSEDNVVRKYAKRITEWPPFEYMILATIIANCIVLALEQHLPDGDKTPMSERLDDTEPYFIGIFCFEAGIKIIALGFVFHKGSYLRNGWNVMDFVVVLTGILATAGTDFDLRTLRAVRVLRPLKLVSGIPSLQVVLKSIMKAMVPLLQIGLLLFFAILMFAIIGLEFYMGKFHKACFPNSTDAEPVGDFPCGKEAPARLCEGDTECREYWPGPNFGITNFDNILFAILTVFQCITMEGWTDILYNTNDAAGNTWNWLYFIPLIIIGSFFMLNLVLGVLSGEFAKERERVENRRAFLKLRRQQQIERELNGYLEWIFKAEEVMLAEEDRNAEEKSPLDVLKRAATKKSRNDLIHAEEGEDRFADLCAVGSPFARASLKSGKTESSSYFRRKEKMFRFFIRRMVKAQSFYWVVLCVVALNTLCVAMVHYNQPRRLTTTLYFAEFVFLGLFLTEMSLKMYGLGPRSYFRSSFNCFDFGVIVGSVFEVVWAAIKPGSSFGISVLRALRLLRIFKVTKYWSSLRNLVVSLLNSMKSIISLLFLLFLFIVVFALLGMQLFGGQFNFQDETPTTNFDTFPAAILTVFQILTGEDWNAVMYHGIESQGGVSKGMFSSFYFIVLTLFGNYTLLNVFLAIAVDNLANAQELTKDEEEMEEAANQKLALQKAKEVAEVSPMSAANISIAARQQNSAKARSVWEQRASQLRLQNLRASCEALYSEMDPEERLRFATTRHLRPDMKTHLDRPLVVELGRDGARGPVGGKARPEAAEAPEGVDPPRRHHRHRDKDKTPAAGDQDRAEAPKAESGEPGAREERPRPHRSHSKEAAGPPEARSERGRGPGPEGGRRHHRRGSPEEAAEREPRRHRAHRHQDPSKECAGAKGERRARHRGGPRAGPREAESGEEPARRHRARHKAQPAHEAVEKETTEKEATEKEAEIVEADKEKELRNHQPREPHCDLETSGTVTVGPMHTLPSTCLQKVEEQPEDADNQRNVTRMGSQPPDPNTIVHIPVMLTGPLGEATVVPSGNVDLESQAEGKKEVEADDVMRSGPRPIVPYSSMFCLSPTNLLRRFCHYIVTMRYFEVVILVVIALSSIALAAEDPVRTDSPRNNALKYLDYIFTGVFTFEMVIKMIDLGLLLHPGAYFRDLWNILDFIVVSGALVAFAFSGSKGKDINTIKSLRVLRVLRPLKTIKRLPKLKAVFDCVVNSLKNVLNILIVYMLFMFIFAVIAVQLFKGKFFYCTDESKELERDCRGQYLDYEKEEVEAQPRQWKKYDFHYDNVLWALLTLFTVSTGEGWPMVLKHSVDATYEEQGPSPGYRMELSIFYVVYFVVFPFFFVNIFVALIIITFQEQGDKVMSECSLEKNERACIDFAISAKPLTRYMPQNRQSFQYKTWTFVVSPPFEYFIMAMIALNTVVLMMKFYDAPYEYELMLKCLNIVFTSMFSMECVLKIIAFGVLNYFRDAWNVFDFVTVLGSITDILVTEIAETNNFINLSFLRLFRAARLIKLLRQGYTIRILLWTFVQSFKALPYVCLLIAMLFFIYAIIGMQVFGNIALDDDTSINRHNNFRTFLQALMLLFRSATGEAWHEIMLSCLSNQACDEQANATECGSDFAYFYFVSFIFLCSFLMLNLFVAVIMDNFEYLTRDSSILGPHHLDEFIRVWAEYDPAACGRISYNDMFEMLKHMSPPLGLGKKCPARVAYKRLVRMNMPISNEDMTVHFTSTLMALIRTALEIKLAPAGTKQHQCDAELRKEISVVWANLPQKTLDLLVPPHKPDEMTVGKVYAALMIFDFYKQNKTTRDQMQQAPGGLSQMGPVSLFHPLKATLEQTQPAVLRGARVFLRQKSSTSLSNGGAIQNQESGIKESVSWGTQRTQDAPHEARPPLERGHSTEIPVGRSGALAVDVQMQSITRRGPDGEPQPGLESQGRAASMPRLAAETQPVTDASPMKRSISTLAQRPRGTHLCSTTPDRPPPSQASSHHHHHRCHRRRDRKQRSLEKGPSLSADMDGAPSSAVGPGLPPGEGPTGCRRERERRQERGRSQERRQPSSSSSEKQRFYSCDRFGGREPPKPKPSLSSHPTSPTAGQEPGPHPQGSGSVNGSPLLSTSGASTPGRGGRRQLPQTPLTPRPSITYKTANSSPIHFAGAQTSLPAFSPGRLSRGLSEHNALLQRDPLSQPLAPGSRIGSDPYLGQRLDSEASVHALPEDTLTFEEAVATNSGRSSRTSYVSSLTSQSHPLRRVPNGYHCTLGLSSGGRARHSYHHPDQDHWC
T1 sequence (Q02641 whole entry partner): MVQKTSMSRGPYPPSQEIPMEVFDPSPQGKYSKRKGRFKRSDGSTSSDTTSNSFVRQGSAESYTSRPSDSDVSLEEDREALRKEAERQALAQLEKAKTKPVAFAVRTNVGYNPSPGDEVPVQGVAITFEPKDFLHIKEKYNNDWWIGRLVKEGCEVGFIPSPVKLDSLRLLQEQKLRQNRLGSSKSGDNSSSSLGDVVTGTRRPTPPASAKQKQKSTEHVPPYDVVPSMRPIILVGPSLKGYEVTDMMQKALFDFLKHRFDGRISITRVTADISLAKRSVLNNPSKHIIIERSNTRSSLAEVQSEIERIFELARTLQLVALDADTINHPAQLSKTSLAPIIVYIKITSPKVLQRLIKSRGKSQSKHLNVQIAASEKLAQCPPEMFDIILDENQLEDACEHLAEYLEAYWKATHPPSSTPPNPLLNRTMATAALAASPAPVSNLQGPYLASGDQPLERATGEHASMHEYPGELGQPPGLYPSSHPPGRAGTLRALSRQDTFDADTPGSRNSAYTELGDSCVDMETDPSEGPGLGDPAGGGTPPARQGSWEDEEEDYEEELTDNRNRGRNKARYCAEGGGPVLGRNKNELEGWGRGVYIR
T1 sequence (P54289 25-956 partner limits assumed): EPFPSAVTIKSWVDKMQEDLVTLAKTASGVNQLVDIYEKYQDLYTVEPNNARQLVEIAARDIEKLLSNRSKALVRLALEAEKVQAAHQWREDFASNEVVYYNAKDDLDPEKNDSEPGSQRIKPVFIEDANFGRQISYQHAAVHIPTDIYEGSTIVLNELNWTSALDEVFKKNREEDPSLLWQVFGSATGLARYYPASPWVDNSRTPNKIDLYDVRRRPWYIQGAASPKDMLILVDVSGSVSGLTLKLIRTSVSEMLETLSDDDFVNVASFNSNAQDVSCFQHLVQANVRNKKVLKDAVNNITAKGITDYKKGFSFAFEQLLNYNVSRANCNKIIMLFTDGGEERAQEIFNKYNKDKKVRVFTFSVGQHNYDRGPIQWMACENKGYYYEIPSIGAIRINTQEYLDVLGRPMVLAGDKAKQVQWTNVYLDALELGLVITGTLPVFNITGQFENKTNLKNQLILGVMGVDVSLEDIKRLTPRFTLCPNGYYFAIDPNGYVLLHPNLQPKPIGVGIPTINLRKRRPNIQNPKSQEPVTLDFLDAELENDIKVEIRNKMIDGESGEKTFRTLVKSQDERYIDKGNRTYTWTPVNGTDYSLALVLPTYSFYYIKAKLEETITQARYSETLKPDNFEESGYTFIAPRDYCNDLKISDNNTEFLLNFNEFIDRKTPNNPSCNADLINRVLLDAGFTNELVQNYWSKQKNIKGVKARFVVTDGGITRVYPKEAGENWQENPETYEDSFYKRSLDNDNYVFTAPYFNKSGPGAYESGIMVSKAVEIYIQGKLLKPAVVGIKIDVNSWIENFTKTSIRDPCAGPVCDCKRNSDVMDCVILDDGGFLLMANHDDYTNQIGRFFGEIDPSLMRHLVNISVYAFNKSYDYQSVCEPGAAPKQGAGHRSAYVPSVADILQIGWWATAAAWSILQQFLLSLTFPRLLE
T1 sequence (P54289 957-1103 partner limits assumed): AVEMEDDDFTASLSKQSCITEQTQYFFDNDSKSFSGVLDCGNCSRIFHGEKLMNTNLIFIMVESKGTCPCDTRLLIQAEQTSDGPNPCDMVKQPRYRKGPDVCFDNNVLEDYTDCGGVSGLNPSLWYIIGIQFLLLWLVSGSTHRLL
Experimental: Measurement of N-type Ca^2+ Channel Blocking Potencies of Compounds in IMR32 Cells Using the Fluorescent Ca^2+ Indicator Indo-1
IMR-32 cells are a human tumoral cell line of neural origin. […] Calcium flux into these cells may be induced by stimulation with elevated potassium concentrations. The L-channel component of calcium flux may be blocked by adding 5 μM nitrendipine. The remaining component of calcium entry into the IMR-32 cells is due to calcium flux through N-type calcium channels. Intracellular calcium concentrations are measured using the fluorescent calcium indicator Indo-1. The effect of drug concentration on calcium uptake is studied.
The IMR-32 cell line was obtained from the American Type Culture Collection (Rockville, Md.). Cells were grown in Eagle's Minimum Essential Medium with Earle's salts supplemented with 10% fetal bovine serum, 2 mM L-Gln and antibiotic/antimicotic mixture (Gibco). At approximately 80% confluency, differentiation was induced by the addition of 1 mM dibutyryl cAMP and 2.5 μM bromodeoxyuridine to the medium. After 7 to 13 days of differentiation, cells were detached using 0.5 mM EDTA and loaded with 5 μM Indo-1 acetoxymethyl ester (Molecular Probes, Eugene, Oreg.) at […] for 45 minutes. Loaded cells were washed twice, resuspended (˜10^7 cells/mL) in assay buffer (10 mM HEPES/Tris pH 7.4 in Hank's Balanced Salt Solution without bicarbonate or phenol red containing 0.5% bovine serum albumin) and kept on ice until use. Fluorescence measurements were carried out in a Photon Technology International (PTI, South Brunswick, N.J.) Model RF-F3004 spectrofluorometer with dual emission monochromators using excitation at 350 nm and emission at 400 and 490 nm. The instrument was equipped with a thermostated cuvette holder with stirring capabilities as well as with a computer-controlled pump that allowed for reagent addition during measurement. Instrument control and data collection was done by PTI's OSCAR software running on an IBM compatible computer. Different concentrations of the test compounds (60 μL in dimethyl sulfoxide) were added to 5.94 mL of assay buffer containing approximately 3×10^6 loaded cells, and 5 μM Nitrendipine (in 30 μL EtOH) to block L-type Ca^2+ channels. Samples were incubated for 10 minutes at 30° C. and then aliquoted into three 10×10 mm disposable acrylic cuvettes. Emission signals at 400 and 490 nm were acquired from each cuvette at 30° C. for 50 seconds. At 20 seconds after the start of reading, cells were depolarized by the addition of 160 μL of stimulation solution (1M KCl, 68 mM CaCl2) to the cuvette via the computer-controlled pump. Ratio of dual emission signals (400 nm/490 nm), which is proportional to intracellular Ca^2+ concentration, was plotted against time, and the difference between maximal response after stimulation and basal value (before stimulation) was determined. Values obtained in this way were plotted as a function of drug concentration. IC50 values of test compounds were calculated by fitting a 4-parameter logistic function to the data using the least squares method.

[1] = 10 mg/kg IV, 15 minutes post treatment
[2] = 30 mg/kg IV, 15 minutes post treatment
[3] = 30 mg/kg IV, 45 minutes post treatment
[4] = 10 mg/kg IV, 15 minutes post treatment, dihydrochloride
[5] = 10 mg/kg IV, 45 minutes post treatment, dihydrochloride

CC(C)C[C@@H](CN[C@@H](Cc1ccc(OCc2ccccc2)cc1)C(=O)NC(C)(C)C)NC(=O)N1CCCCCC1 (relative stereo) [Example 2, [S-(R*,R*)]Azepane-1-carboxylic acid (1-{[2-(4-benzyloxy-phenyl)-1-tert-butylcarbamoyl-ethylamino]-methyl}-3-methyl-butyl)-amide dihydrochloride salt]
Number of Mice Protected from Tonic Convulsions / number of mice tested (DBA/2 mice; [1]): 1/5 | Number of Mice Protected from Tonic Convulsions / number of mice tested (DBA/2 mice; [2]): 5/5 | Number of Mice Protected from Tonic Convulsions / number of mice tested (DBA/2 mice; [3]): 1/5 | protection (DBA/2 mice): 100% | IC50 (N-type Ca2+ channel): 190 nM

CC(C)CC(N)CN[C@@H](Cc1ccc(OCc2ccccc2)cc1)C(=O)NC(C)(C)C (single isomer, unassigned) [Example 8, 2-(2-Amino-4-methyl-pentylamino)-3-(4-benzyloxy-phenyl)-N-tert-butyl-propionamide dihydrochloride]
Number of Mice Protected from Tonic Convulsions / number of mice tested (DBA/2 mice; [4]): 0/5 | Number of Mice Protected from Tonic Convulsions / number of mice tested (DBA/2 mice; [5]): 0/5 | IC50 (N-type Ca2+ channel): 1000 nM

CC(C)C[C@H](NC(=O)N1CCCCCC1)C(=O)N[C@H](COC(C)(C)C)Cc1ccc(OCc2ccccc2)cc1 (relative stereo) [Example 1, [S-(R*,R*)]-Azepane-1-carboxylic acid {1-[2-(4-benzyloxy-phenyl)-1-tert-butoxymethyl-ethylcarbamoyl]-3-methyl-butyl}-amide]
Number of Mice Protected from Tonic Convulsions / number of mice tested (DBA/2 mice; [1]): 1/5 | Number of Mice Protected from Tonic Convulsions / number of mice tested (DBA/2 mice; [2]): 4/5 | Number of Mice Protected from Tonic Convulsions / number of mice tested (DBA/2 mice; [3]): 2/5 | protection (DBA/2 mice): 80% | IC50 (N-type Ca2+ channel): 210 nM

CC(C)C[C@H](NC(=O)N1CCCCCC1)C(=O)N[C@@H](Cc1ccc(OCc2ccccc2)cc1)CN1CCOCC1 (relative stereo) [Example 4, [S-(R*,R*)]-Azepane-1-carboxylic acid {1-[2-(4-benzyloxy-phenyl) -1-morpholin-4-ylmethyl-ethylcarbamoyl]-3-methyl-butyl}-amide]
IC50 (N-type Ca2+ channel): 1200 nM

CC(C)C[C@@H](C(=O)N[C@@H](Cc1ccc(OCc2ccccc2)cc1)CN1CCOCC1)N(C)C (relative stereo) [Example 3, [S-(R*,R*)]-2-Dimethylamino-4-methyl-pentanoic acid [2-(4-benzyloxy-phenyl)-1-morpholin-4-ylmethyl-ethyl]-amide]
melting point: 113 to 114 °C | IMR32 % @ 1 μM (N-type Ca2+ channel; 1 μM compound, 5 μM nitrendipine): 6% @ 1 μM | IMR32 % @ 10 μM (N-type Ca2+ channel; 10 μM compound, 5 μM nitrendipine): 48% @ 10 μM

CC(C)C[C@H](NC(=O)N1CCCCCC1)C(=O)N[C@H](CNC(C)(C)C)Cc1ccc(OCc2ccccc2)cc1 (relative stereo) [Example 5, [S-(R*,R*)]Azepane-1-carboxylic acid {1-[2-(4-benzyloxy-phenyl)-1-(tert-butylamino-methyl)-ethylcarbamoyl]-3-methyl-butyl}-amide trifloroacetate salt]
IC50 (N-type Ca2+ channel): 1100 nM

CC(C)CC(N)CN[C@@H](Cc1ccc(OCc2ccccc2)cc1)C(=O)NC(C)(C)C (single isomer, unassigned) [Example 7, dihydrochloride]
Number of Mice Protected from Tonic Convulsions / number of mice tested (DBA/2 mice; [4]): 2/5 | Number of Mice Protected from Tonic Convulsions / number of mice tested (DBA/2 mice; [5]): 1/5 | IC50 (N-type Ca2+ channel): 1200 nM

CCN(CC)C[C@H](Cc1ccc(OCc2ccccc2)cc1)NC(=O)[C@H](CC(C)C)NC(=O)N1CCCCCC1 [Example 6, (S,S)-Azepane-1-carboxylic acid {1-[2-(4-benzyloxy-phenyl)-1-diethylaminomethyl-ethylcarbamoyl]-3-methyl-butyl}-amide]
IC50 (N-type Ca2+ channel): 1100 nM
